The numbers were not newly measured in patent US20240058323A1, “PHARMACEUTICAL COMPOSITION CONTAINING PYRROLOQUINOLINE QUINONE TRILITHIUM SALT NONAHYDRATE COMPOUND, CAPSULE, AND PREPARATION METHOD THEREFOR” (SHANGHAI RAISING PHARMACEUTICAL CO., LTD, priority 2020, published 2024), which cites them from elsewhere.

Where a name gives a salt, the structure may show the parent alone.

The conditions of this data set: crystalline nonahydrate API.

On to `O=C(O)c1cc(C(=O)O)c2c(n1)C(=O)C(=O)c1cc(C(=O)O)[nH]c1-2` [4,5-dioxo-4,5-dihydro-1H-pyrrolo[2,3-f]quinoline-2,7,9-tricarboxylic acid lithium salt nonahydrate compound], for which the “temperature above which water is rapidly and irreversibly lost” value is “higher than 60 °C”.
